# Patent publication US7989466B2, “Methods to inhibit or augment an inflammatory response” (Cambridge Enterprise Limited, priority 1999, dated 2011)
# pEC50: −log10 of the molar value. Read-outs that look alike come from different tables or passages of the source. Marks after values point to notes of the source that are not given here. Positions of bridges follow the written chain, without caps; N, C: chain ends. No end group written: not given here. *: point of attachment. Biotin = O=C1N[C@H]2[C@H](CS[C@H]2CCCCC(=O)*)N1
# Legend:
# [1] = system: MCP-1 induced THP-1 migration; assay: THP-1 trans-well migration assay, MCP-1 as chemoattractant; format: cell-based, human
# Procedure: (§1) To determine whether an agent inhibits a chemokine-induced activity, such as macrophage recruitment, varying amounts of the agent are mixed with cells in the presence of a known chemoattractant. For example, a range of known concentrations of an agent, e.g., a chemokine peptide, is incubated with a defined number (e.g., 10^4-10^6) of human THP-1 monocyte cells in individual wells of the top compartment of a trans-well plate. Chemokine (such as MCP-1, MIP1α, IL8 or SDF-1α), at a concentration known to cause significant migration of THP-1 cells in the trans-well migration assay, is placed in the lower compartment (FIG. 1). Cells are then incubated at 37° C. for a period sufficient to allow migration, e.g., 4 hours. After incubation, the cells are gently removed from the top of the filter with a pipette, 20 μl of 20 mM EDTA in simple PBS is added into each top well, and incubated for 20 minutes at 4° C. The filter is carefully flushed with media using a gentle flow, and removed. A standard curve consisting of a two-fold dilution series of THP-1 cells (in 29 μl) is prepared to accurately quantify the number of cells that have migrated. Migrated cells are stained with 3 μl of MTT stock dye solution which is added directly into each well (5 mg/ml in RPMI-1640 without phenol red, Sigma Chemical Co.) and incubated at 37° C. for 4 hours. The media is carefully aspirated from each well, and the converted dye is solubilized by 20 μl of DMSO. Absorbance of converted dye is measured at a wavelength of 595 nm using an ELISA plate reader. The number of migrated cells in each well is then determined by interpolation of the standard curve (see also Imai et al., J. Biol. Chem., 272, 15036 (1997)).
# (§2) For this assay, THP-1 cells were maintained at a density of 4×10^5 cells per ml in RPMI-1640 supplemented with 10% fetal calf serum+20 μM 2-mercaptoethanol. Chemotaxis was induced in a 96-well disposable chemotaxis chamber fitted with a […] polycarbonate filter (PVP free, ChemoTX, Neuroprobe Inc., Cabin John). Twenty-nine μl of chemoattractant (recombinant human chemokine; 50 ng/ml, i.e., 5.9 nM) or control (100 ng/ml TGFβ) was added to the lower compartment of each well. The framed filter was aligned with the holes in the corner of the filter frame and placed over the wells. Five×10^4 THP-1 cells in 25 μl of RPMI-1640 were added to the upper compartment. Peptides were dissolved in Milli Q water and then serially diluted in culture medium. In most cases, the serially diluted peptides were added to the upper compartment of the chemotaxis chamber. The chamber was incubated at 37° C. in a humidified atmosphere of 5% CO2 for 4 hours.
# (§3) After incubation, the cells were gently removed from the top of the filter with a pipette, 20 μl of 20 mM EDTA in PBS was added into each top well, and the mixture was incubated for 20 minutes at 4° C. The filter was then carefully flushed with media using a gentle flow, and removed. A standard curve was prepared to accurately quantify the number of THP-1 cells that had migrated. The curve was based on a two-fold dilution series of THP-1 cells (top standard 100,000 cells in 29 μl). Cells which had migrated, and in separate wells, the cells in the standards, were stained with 3 μl of MTT stock solution which was added directly into each well (5 mg/ml in RPMI 1640 without phenol red, Sigma Chemical Co.) and incubated at 37° C. for 4 hours. The media was carefully aspirated from each well, and the converted dye was solubilized by 20 μl of DMSO. Absorbance of converted dye was measured at a wavelength of 595 nm using an ELISA plate reader. The number of cells that had migrated in each well was determined by interpolation of the standard curve.
# [2] = system: chemokine-induced THP-1 migration; assay: THP-1 trans-well migration assay, panel of chemokines (MCP-1, MIP1α, IL-8, SDF1α); format: cell-based, human; details: for effect on THP-1 migration induced by the chemokine panel, in words / Chemokine antagonist: MCP-1, MIP1α; for effect on THP-1 migration induced by the chemokine panel, in words: IL-8, SDF1α; for CC SPECIFICITY: average inhibitory ED50 versus SDF1 and IL8 divided by average inhibitory ED50 versus MCP-1 and MIP1α; for Chemokine antagonist: active against at least one of IL-8, SDF-1α
# [3] = system: MIP1α induced THP-1 migration; assay: THP-1 trans-well migration assay, MIP1α as chemoattractant; format: cell-based, human; details: n.s. = no statistically significant inhibition (p > 0.05); read-out: ED50 versus MIP1α, inhibition of THP-1 migration
# Procedure: as §1, §2, §3
# [4] = system: IL8 induced THP-1 migration; assay: THP-1 trans-well migration assay, IL-8 as chemoattractant; format: cell-based, human; details: for pEC50: n.s. = no statistically significant inhibition (p > 0.05), read-out: ED50 versus IL8, inhibition of THP-1 migration
# Procedure: as §1, §2, §3
# [5] = system: SDF-1α induced THP-1 migration; assay: THP-1 trans-well migration assay, SDF-1α as chemoattractant; format: cell-based, human; details: n.s. = no statistically significant inhibition (p > 0.05); read-out: ED50 versus SDF-1α, inhibition of THP-1 migration
# Procedure: as §1, §2, §3
# [6] = system: TGFβ1 induced THP-1 migration; assay: THP-1 trans-well migration assay, TGFβ1 as non-chemokine control; format: cell-based, human; details: n.s. = no statistically significant inhibition (p > 0.05)
# Procedure: Any method suitable for counting cells can be used, for example, counting with a hemocytometer, incubation of the cells with MTT (see above), or FACS analysis. A negative control assay is also performed, using TGF-β or another non-chemokine chemoattractant (e.g., IL1β or TNFα). To assess whether the agent is cytotoxic, the same concentrations of agent are incubated with THP-1 cells. Agents which 1) are not cytotoxic at levels which inhibit migration, 2) are ineffective at inhibiting the negative control-induced migration, and 3) reduce or inhibit chemokine-induced THP-1 migration, are agents which fall within the scope of the invention.
# Chemotaxis was induced in a 96-well disposable chemotaxis chamber fitted with a […] polycarbonate filter (PVP free, ChemoTX, Neuroprobe Inc., Cabin John). […] The framed filter was aligned with the holes in the corner of the filter frame and placed over the wells. […] Peptides were dissolved in Milli Q water and then serially diluted in culture medium. In most cases, the serially diluted peptides were added to the upper compartment of the chemotaxis chamber. The chamber was incubated at 37° C. in a humidified atmosphere of 5% CO2 for 4 hours.
# After incubation, the cells were gently removed from the top of the filter with a pipette, 20 μl of 20 mM EDTA in PBS was added into each top well, and the mixture was incubated for 20 minutes at 4° C. The filter was then carefully flushed with media using a gentle flow, and removed. […] The curve was based on a two-fold dilution series of THP-1 cells (top standard 100,000 cells in 29 μl). […] The media was carefully aspirated from each well, and the converted dye was solubilized by 20 μl of DMSO.
# [7] = system: chemokine receptors on THP-1 cells; assay: Binding to chemokine receptors on THP-1 cells; parameters: species or system human
# Procedure: In general, specific binding is calculated as the amount of labeled agent bound in the absence of cold competitor minus the amount of labeled agent bound in the presence of cold competitor. The amount of specific binding in the presence of varied amounts of cold competitor can be used to determine the association constant for the agent, as well as the number of binding sites on the cell for the agent, using, for example, Scatchard Analysis. The agent may be labeled by radiolabeling (e.g., iodination) or with a suitable biochemical tag (e.g., biotin) or by addition of a photoactivatable crosslinking group. Agents with an association constant lower than 100 μM (i.e., which bind more strongly than an agent with an association constant of 100 μM) and which have at least about 2,500, preferably at least about 10,000, and more preferably greater than 25,000, binding sites per cell for at least one cell type which expresses a chemokine receptor, fall under the scope of this invention. THP-1 cells have at least about 5,000 MCP-1 receptors/cell.
# For example, monocytes are suspended in RPMI 1640 medium without bicarbonate containing 0.2% bovine serum albumin and 0.1% azide. Radiolabeled chemokine peptide is incubated with 1-2×10^6 cells, e.g., THP-1 cells, in the presence or absence of increasing concentrations of unlabeled chemokine (MCP-1, MCP-3, MCP-4, RANTES or MIP-1α) for 15 minutes at 37° C. in a 96-well plate in a final volume of 0.2 ml (e.g., PBS+0.5% FCS). After the incubation, 0.5 ml of ice-cold wash buffer (20 mM Tris, 0.5 M NaCl, pH 7.4) is added, and cells are collected onto a polyethyleneimine-treated Whatman GF/C filter using a Brandall cell harvester. Filters are washed with 4 ml of cold wash buffer, and the radioactivity bound to the filters is counted in a γ-counter.
# For Scatchard analysis, the absorbance readings at 450 nm were calibrated, by reference to a standard curve in which known amounts of labeled peptide were coupled to derivatized sepharose beads (activated thiol-sepharose 4B; Sigma T8512) via the cysteine residue in each peptide. Briefly, known amounts (1 fmol to 1 pmol) of biotin-labeled peptide were incubated with 1 mg of activated thiol-sepharose beads in 100 μl of PBS at 37° C. for 1 hour. Free activated thiols were then blocked by addition of cysteine to a final concentration of 10 mM. The peptide-conjugated beads were then washed 5 times in PBS and treated exactly as for the cells described above. The absorbance at 450 nm obtained when a known amount of peptide was coupled to the beads was used to construct a standard curve which was used to convert the absorbance readings obtained with cells into number of molecules of labeled peptide which had bound.
# [8] = Homo sapiens, THP-1, agent with the cells in the upper compartment, n.s. = no statistically significant inhibition (p > 0.05), read-out: ED50 versus MCP-1, inhibition of THP-1 migration
# [9] = average inhibitory ED50 for inhibition of THP-1 migration induced by each of the chemokines, read-out: AVERAGE ED50
# [10] = agent with the cells in the upper compartment, n.s. = no statistically significant inhibition (p > 0.05), read-out: ED50 versus MCP-1, inhibition of THP-1 migration
compound,measurement,setting,value
"CCC1(c2ccccc2)CCC(=O)NC1=O (centres unmarked) [Glutethimide, reference compound]",pEC50,"[1]; Homo sapiens, THP-1, read-out: ED50 versus MCP-1, inhibition of THP-1 migration",4.30
"Cc1cc(C(C)(C)C)c(O)c(C)c1CC1=NCCN1 [Oxymetazoline, reference compound]",pEC50,[1]; [8],4.12
"O=C1NC(=O)C(c2ccccc2)(c2ccccc2)N1 [Phenytoin, reference compound]",pEC50,[1]; [8],5.00
"COC(=O)[C@@H]1[C@H]2C[C@H]3c4[nH]c5ccccc5c4CCN3C[C@@H]2CC[C@@H]1O [Yohimbine, reference compound]",pEC50,"[1]; Homo sapiens, THP-1, read-out: ED50 versus MCP-1 induced chemotaxis of THP-1",7.52
"COC(=O)[C@H]1[C@H]2C[C@H]3c4[nH]c5ccccc5c4CCN3C[C@H]2CC[C@@H]1O [α-Yohimbine, reference compound]",pEC50,[1]; read-out: ED50 versus MCP-1 induced chemotaxis of THP-1,6.30
"-CQVWKQKPDAC-- (disulfide 1-11; not fully specified (some residues, C-terminus); printed as -CQVWKQKPDAC--; also: CRD: cyclic reverse-D derivative, D-residues shown in italics, not given here) [CRD-Cys13pep3[3-12]]",pEC50,[2]; [9],6.10
APG [reference compound],"effect on THP-1 migration induced by the chemokine panel, in words",[2],None of these significantly inhibited migration
CADPKQKWVQ [Peptide 3[3-12]],pEC50,[1]; [10],5.10
same,pEC50,[3],5.15
same,pEC50,[4],5.05
same,pEC50,[5],5.05
same,"ED50 versus TGFβ1, inhibition of THP-1 migration",[6],n.s.
CLDPKQKWIQC [unlabeled peptide],pEC50,[1]; [10],~5.05
EICADP [Peptide 3[1-6]],pEC50,[1]; [10],4.48
same,pEC50,[3],4.60
same,pEC50,[4],4.77
same,pEC50,[5],4.72
same,"ED50 versus TGFβ1, inhibition of THP-1 migration",[6],n.s.
same,pEC50,"[2]; THP-1 migration, read-out: ED50 for inhibiting the CC chemokines",~4.52
same,pEC50,[2]; [9],4.62
same,CC SPECIFICITY,[2],0.7
EICADPKQKWIQ [Ile11peptide 3],pEC50,[1]; [10],5.22
same,pEC50,[3],5.40
same,pEC50,[4],5.70
same,pEC50,[5],5.15
same,"ED50 versus TGFβ1, inhibition of THP-1 migration",[6],n.s.
same,selectivity of IL-8 over other chemokines,[2],about 3 fold
same,pEC50,[2]; [9],5.30
same,CC SPECIFICITY,[2],0.9
EICADPSEEWVQ [Ser7Glu8Glu9pep3],pEC50,[1]; [10],5.15
same,pEC50,[3],5.70
same,pEC50,[4],5.05
same,pEC50,[5],5.30
same,"ED50 versus TGFβ1, inhibition of THP-1 migration",[6],n.s.
same,selectivity ratio for MIP1α versus all other chemokines,[2],about 3 fold
same,pEC50,[2]; [9],5.22
ELRVIESGPHCANTEI [Pep2[IL8]],"AVERAGE ED50, peptide 2 family: estimated ka for binding to THP-1 cells",[7],1-10^e μM
GGR [reference compound],"effect on THP-1 migration induced by the chemokine panel, in words",[2],None of these significantly inhibited migration
KAK,Chemokine antagonist,[2],+
KEN,percentage inhibition of migration induced by MCP-1,"[1]; tripeptide at 100 μM, mean ± range of two experiments, dash = no statistically significant reduction in migration",21 ± 2^ %
same,percentage inhibition of migration induced by IL-8,"[4]; tripeptide at 100 μM, mean ± range, dash = no statistically significant reduction in migration",70 ± 4%
same,CC SPECIFICITY,[2],<0.1
same,pEC50,"[2]; footnote f, KQK MCP-1, SEE MIP1α, KLK SDF1, KEN IL8, read-out: ED50 of a tripeptide against the one chemokine it is highly specific for",5.00 to 7.00
KNK,Chemokine antagonist,[2],+++
RGD [reference compound],"effect on THP-1 migration induced by the chemokine panel, in words",[2],None of these significantly inhibited migration
TTT [reference compound],"effect on THP-1 migration induced by the chemokine panel, in words",[2],None of these significantly inhibited migration
WGQ,pEC50,[1]; [10],~5.76
WIQ,pEC50,[2]; [9],5.70
same,CC SPECIFICITY,[2],1.0
"n′-CLDPKQKWIQC-c′ (Biotin-CLDPKQKWIQC; cysteine pairing not given here) [labeled peptide, N-terminal biotin conjugate]",pEC50,[1]; [10],~5.40
